Data as given in ChEMBL document CHEMBL1201862, “PubChem BioAssay data set” (2004).
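Cultured in 96-well plates, cells were exposed to test compound for 48 hours across five concentrations. GI50: concentration for 50% inhibition of growth.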 The source made the active and inactive calls. No stated cut-off is given here; in the data, active = GI50 up to about 1.1 µM and inactive = higher.

What was measured:
Experiment in all cases: inhibition of tumour cell growth, NCI panel, 48 h
786-0 = system: 786-0
A498 = system: A498
A549 = system: A549
ACHN = system: ACHN
BT-549 = system: BT-549
CAKI-1 = system: CAKI-1
COLO 205 = system: COLO 205
DU-145 = system: DU-145
EKVX = system: EKVX
HCC 2998 = system: HCC 2998
HCT-116 = system: HCT-116
HCT-15 = system: HCT-15
HL-60 = system: HL-60
HOP-62 = system: HOP-62
HOP-92 = system: HOP-92
HT-29 = system: HT-29
Hs-578T = system: Hs-578T
IGROV-1 = system: IGROV-1
K562 = system: K562
KM12 = system: KM12
LOX IMVI = system: LOX IMVI
M14 = system: M14
MCF7 = system: MCF7
MDA-MB-231 = system: MDA-MB-231
MDA-MB-435 = system: MDA-MB-435
MDA-N = system: MDA-N
MOLT-4 = system: MOLT-4
Malme-3M = system: Malme-3M
NCI-H226 = system: NCI-H226
NCI-H23 = system: NCI-H23
NCI-H460 = system: NCI-H460
NCI-H522 = system: NCI-H522
NCI/ADR-RES = system: NCI/ADR-RES
OVCAR-3 = system: OVCAR-3
OVCAR-4 = system: OVCAR-4
OVCAR-5 = system: OVCAR-5
OVCAR-8 = system: OVCAR-8
PC-3 = system: PC-3
RPMI-8226 = system: RPMI-8226
RXF 393 = system: RXF 393
SF-268 = system: SF-268
SF-295 = system: SF-295
SF-539 = system: SF-539
SK-MEL-28 = system: SK-MEL-28
SK-MEL-2 = system: SK-MEL-2
SK-MEL-5 = system: SK-MEL-5
SK-OV-3 = system: SK-OV-3
SN12C = system: SN12C
SNB-19 = system: SNB-19
SNB-75 = system: SNB-75
SW-620 = system: SW-620
T47D = system: T47D
TK-10 = system: TK-10
U-251 = system: U-251
UACC-257 = system: UACC-257
UACC-62 = system: UACC-62
UO-31 = system: UO-31

Question: For COc1ccc2c(CCN)c(C(=O)O)[nH]c2c1, which GI50 (786-0) is on record?
Answer: > 100 µM (inactive)

Question: And the GI50 (A498)?
Answer: > 100 µM (inactive)

Question: And the GI50 (A549)?
Answer: > 100 µM (inactive)

Question: And the GI50 (ACHN)?
Answer: > 100 µM (inactive)

Question: What about the GI50 (BT-549) of the same compound?
Answer: > 100 µM (inactive)

Question: And the GI50 (CAKI-1)?
Answer: > 100 µM (inactive)

Question: And the GI50 (COLO 205)?
Answer: > 100 µM (inactive)

Question: What about the GI50 (DU-145) of the same compound?
Answer: > 100 µM (inactive)

Question: What about the GI50 (EKVX) of the same compound?
Answer: > 100 µM (inactive)

Question: And the GI50 (HCC 2998)?
Answer: > 100 µM (inactive)

Question: What about the GI50 (HCT-116) of the same compound?
Answer: > 100 µM (inactive)

Question: What about the GI50 (HCT-15) of the same compound?
Answer: > 100 µM

Question: And the GI50 (HL-60)?
Answer: > 100 µM (inactive)

Question: What about the GI50 (HOP-62) of the same compound?
Answer: > 100 µM (inactive)

Question: What about the GI50 (HOP-92) of the same compound?
Answer: > 100 µM (inactive)

Question: What about the GI50 (HT-29) of the same compound?
Answer: > 100 µM (inactive)

Question: And the GI50 (Hs-578T)?
Answer: > 100 µM (inactive)

Question: And the GI50 (IGROV-1)?
Answer: > 100 µM (inactive)

Question: And the GI50 (K562)?
Answer: > 24.5 µM (inactive)

Question: And the GI50 (KM12)?
Answer: > 100 µM (inactive)

Question: And the GI50 (LOX IMVI)?
Answer: > 100 µM (inactive)

Question: What about the GI50 (M14) of the same compound?
Answer: > 100 µM (inactive)

Question: What about the GI50 (MCF7) of the same compound?
Answer: > 100 µM (inactive)

Question: What about the GI50 (MDA-MB-231) of the same compound?
Answer: > 100 µM (inactive)

Question: What about the GI50 (MDA-MB-435) of the same compound?
Answer: > 100 µM (inactive)

Question: What about the GI50 (MDA-N) of the same compound?
Answer: > 100 µM (inactive)

Question: And the GI50 (MOLT-4)?
Answer: 1 µM (active)

Question: What about the GI50 (Malme-3M) of the same compound?
Answer: > 100 µM (inactive)

Question: And the GI50 (NCI-H226)?
Answer: > 100 µM (inactive)

Question: And the GI50 (NCI-H23)?
Answer: > 100 µM (inactive)

Question: And the GI50 (NCI-H460)?
Answer: > 100 µM (inactive)

Question: And the GI50 (NCI-H522)?
Answer: > 100 µM (inactive)

Question: And the GI50 (NCI/ADR-RES)?
Answer: > 100 µM (inactive)

Question: What about the GI50 (OVCAR-3) of the same compound?
Answer: > 100 µM (inactive)

Question: What about the GI50 (OVCAR-4) of the same compound?
Answer: > 100 µM (inactive)

Question: And the GI50 (OVCAR-5)?
Answer: > 100 µM (inactive)

Question: And the GI50 (OVCAR-8)?
Answer: > 100 µM (inactive)

Question: What about the GI50 (PC-3) of the same compound?
Answer: > 100 µM (inactive)

Question: What about the GI50 (RPMI-8226) of the same compound?
Answer: > 100 µM (inactive)

Question: What about the GI50 (RXF 393) of the same compound?
Answer: > 100 µM (inactive)

Question: What about the GI50 (SF-268) of the same compound?
Answer: > 100 µM (inactive)

Question: And the GI50 (SF-295)?
Answer: > 100 µM (inactive)

Question: What about the GI50 (SF-539) of the same compound?
Answer: > 100 µM (inactive)

Question: What about the GI50 (SK-MEL-28) of the same compound?
Answer: > 100 µM (inactive)

Question: And the GI50 (SK-MEL-2)?
Answer: > 100 µM (inactive)

Question: And the GI50 (SK-MEL-5)?
Answer: > 100 µM (inactive)

Question: And the GI50 (SK-OV-3)?
Answer: > 100 µM (inactive)

Question: And the GI50 (SN12C)?
Answer: > 100 µM (inactive)

Question: What about the GI50 (SNB-19) of the same compound?
Answer: > 100 µM (inactive)

Question: What about the GI50 (SNB-75) of the same compound?
Answer: > 100 µM (inactive)

Question: What about the GI50 (SW-620) of the same compound?
Answer: > 100 µM (inactive)

Question: And the GI50 (T47D)?
Answer: > 100 µM (inactive)

Question: And the GI50 (TK-10)?
Answer: > 100 µM (inactive)

Question: And the GI50 (U-251)?
Answer: > 100 µM (inactive)

Question: And the GI50 (UACC-257)?
Answer: > 100 µM (inactive)

Question: What about the GI50 (UACC-62) of the same compound?
Answer: > 100 µM (inactive)

Question: What about the GI50 (UO-31) of the same compound?
Answer: > 100 µM (inactive)

Question: For COc1cc2nc3n(c(=O)c2cc1OC)-c1ccc([N+](=O)[O-])cc1C3=O, which GI50 (786-0) is on record?
Answer: 56.8 µM (inactive)

Question: What about the GI50 (A498) of the same compound?
Answer: 17.5 µM (inactive)

Question: What about the GI50 (A549) of the same compound?
Answer: 52.7 µM (inactive)

Question: What about the GI50 (ACHN) of the same compound?
Answer: 39.2 µM (inactive)

Question: What about the GI50 (BT-549) of the same compound?
Answer: > 100 µM (inactive)

Question: And the GI50 (CAKI-1)?
Answer: 5.06 µM (inactive)

Question: And the GI50 (COLO 205)?
Answer: > 100 µM (inactive)

Question: And the GI50 (DU-145)?
Answer: 34.6 µM (inactive)

Question: What about the GI50 (EKVX) of the same compound?
Answer: 36.9 µM (inactive)

Question: What about the GI50 (HCC 2998) of the same compound?
Answer: > 100 µM (inactive)

Question: And the GI50 (HCT-116)?
Answer: 34.8 µM (inactive)

Question: What about the GI50 (HCT-15) of the same compound?
Answer: 32.4 µM

Question: And the GI50 (HOP-62)?
Answer: > 100 µM (inactive)

Question: And the GI50 (HOP-92)?
Answer: > 100 µM (inactive)

Question: And the GI50 (HT-29)?
Answer: > 100 µM (inactive)

Question: And the GI50 (Hs-578T)?
Answer: > 100 µM (inactive)

Question: And the GI50 (IGROV-1)?
Answer: 26.1 µM (inactive)

Question: What about the GI50 (K562) of the same compound?
Answer: 31.5 µM (inactive)

Question: What about the GI50 (KM12) of the same compound?
Answer: 80.2 µM (inactive)

Question: What about the GI50 (LOX IMVI) of the same compound?
Answer: 38.7 µM (inactive)

Question: What about the GI50 (M14) of the same compound?
Answer: 52.1 µM (inactive)

Question: And the GI50 (MCF7)?
Answer: 11.9 µM (inactive)

Question: And the GI50 (MDA-MB-231)?
Answer: 46 µM (inactive)

Question: What about the GI50 (MDA-MB-435) of the same compound?
Answer: 19.4 µM (inactive)

Question: And the GI50 (MDA-N)?
Answer: 30.5 µM (inactive)

Question: What about the GI50 (MOLT-4) of the same compound?
Answer: 27.3 µM (inactive)

Question: And the GI50 (Malme-3M)?
Answer: 34.5 µM (inactive)

Question: What about the GI50 (NCI-H226) of the same compound?
Answer: 26.1 µM (inactive)

Question: And the GI50 (NCI-H23)?
Answer: 56.6 µM (inactive)

Question: And the GI50 (NCI-H460)?
Answer: 68.4 µM (inactive)

Question: What about the GI50 (NCI-H522) of the same compound?
Answer: 25.5 µM (inactive)

Question: And the GI50 (NCI/ADR-RES)?
Answer: 89.5 µM (inactive)

Question: And the GI50 (OVCAR-3)?
Answer: 22.6 µM (inactive)

Question: And the GI50 (OVCAR-4)?
Answer: 15 µM (inactive)

Question: What about the GI50 (OVCAR-5) of the same compound?
Answer: > 100 µM (inactive)

Question: And the GI50 (OVCAR-8)?
Answer: 57.9 µM (inactive)

Question: What about the GI50 (PC-3) of the same compound?
Answer: 41.5 µM (inactive)

Question: And the GI50 (RPMI-8226)?
Answer: 28.7 µM (inactive)

Question: And the GI50 (RXF 393)?
Answer: 20.3 µM (inactive)

Question: What about the GI50 (SF-268) of the same compound?
Answer: > 100 µM (inactive)

Question: And the GI50 (SF-295)?
Answer: 83.2 µM (inactive)

Question: And the GI50 (SF-539)?
Answer: > 100 µM (inactive)

Question: And the GI50 (SK-MEL-28)?
Answer: 3.15 µM (inactive)

Question: What about the GI50 (SK-MEL-2) of the same compound?
Answer: > 100 µM (inactive)

Question: What about the GI50 (SK-MEL-5) of the same compound?
Answer: 50.8 µM (inactive)

Question: And the GI50 (SK-OV-3)?
Answer: > 100 µM (inactive)

Question: What about the GI50 (SN12C) of the same compound?
Answer: 66.7 µM (inactive)

Question: And the GI50 (SNB-19)?
Answer: > 100 µM (inactive)

Question: What about the GI50 (SNB-75) of the same compound?
Answer: 85.1 µM (inactive)

Question: And the GI50 (SW-620)?
Answer: 11.3 µM (inactive)

Question: What about the GI50 (T47D) of the same compound?
Answer: 0.891 µM (active)

Question: What about the GI50 (TK-10) of the same compound?
Answer: 61.7 µM (inactive)

Question: What about the GI50 (U-251) of the same compound?
Answer: 46.7 µM (inactive)

Question: What about the GI50 (UACC-257) of the same compound?
Answer: 60.5 µM (inactive)

Question: And the GI50 (UACC-62)?
Answer: 30.5 µM (inactive)

Question: What about the GI50 (UO-31) of the same compound?
Answer: 11.8 µM (inactive)
